From patent US20190307843A1, “SINGLE DOSE METHODS FOR PREVENTING AND TREATING FUNGAL INFECTIONS” (Cidara Therapeutics, Inc., priority 2016, published 2019)
Values after ≈ are worked out from the molar mass of the structure shown. Values joined by “and” are separate entries in the source; they are usually repeats but may differ in a detail not shown here. Equal entries are not always repeated. Starred links: 1 amine or outer side, 2 acyl side, 3 side chain; linkers in the order of their positions; H or OH if unused. Positions of bridges follow the written chain, without caps; N, C: chain ends. Non-standard residues stand in square brackets, D forms with d. Residues, ends and D or L forms follow the SMILES beside them. *: point of attachment. pTerphenylCO(4''-OnC5H11) = CCCCCOc1ccc(-c2ccc(-c3ccc(C(=O)*)cc3)cc2)cc1; Orn(4R-OH,5R-OH) = O=C([C@H](C[C@@H](O)[C@@H](O)N[*:3])N[*:1])[*:2]; hTyr(3S-OH,4S-OH) = N[C@H](C(=O)O)[C@H](O)[C@@H](O)c1ccc(O)cc1; Pro(3S-OH,4S-Me) = C[C@H]1CN[C@H](C(=O)O)[C@H]1O; Hyp = O=C(O)[C@@H]1C[C@@H](O)CN1

How the values were obtained:
[1] = system: C. auris; experiment: Murine model of disseminated candidiasis, C. auris infection, kidney CFU and survival; assay type: in vivo, Candida auris; conditions: amphotericin B 0.3 mg/kg IP, 2 doses; Day 14
[2] = system: Aspergillus fumigatus (ATCC 13073); experiment: Neutropenic mouse aspergillosis model, survival; assay type: in vivo; conditions: AmB 2 mg/kg IP one dose; 10 days
[3] = system: Aspergillus fumigatus (ATCC 13073); experiment: Prophylaxis, neutropenic ICR mouse disseminated aspergillosis model, survival; conditions: amphotericin B at 3 mg/kg IP administered one hour after infection
[4] = system: C. albicans; experiment: In vitro susceptibility testing (CLSI M27-A3), C. albicans; assay type: cell-based; conditions: Candida albicans, 24 h
Protocol: (§1) Ten clinical Candida strains were used for the in vivo treatment studies, including four C. albicans, three C. glabrata, and three C. parapsilosis strains (Table 15). This group was selected to encompass phenotypic variability in susceptibility to triazoles and echinocandins and based on similar fitness in the animal model as defined by the amount of growth in control animals over 24 h. The organisms were maintained, grown, and quantified on Sabouraud's dextrose agar (SDA) plates.
(§2) In vitro susceptibility testing. All isolates were tested in accordance with the standards in CLSI document M27-A3. The MICs were determined visually after 24 h of incubation as the lowest concentration of drug that causes a significant diminution (50%) of growth compared to controls. MICs were determined on three separate occasions in duplicate.

[5] = system: C. glabrata; experiment: In vitro susceptibility testing (CLSI M27-A3), C. glabrata; assay type: cell-based, Candida glabrata; conditions: Nakaseomyces glabratus, 24 h
Protocol: as §1, §2

[6] = system: C. parapsilosis; experiment: In vitro susceptibility testing (CLSI M27-A3), C. parapsilosis; assay type: cell-based, Candida parapsilosis; conditions: Lodderomyces parapsilosis, 24 h
Protocol: as §1, §2

[7] = system: A. fumigatus AF293; experiment: Murine model of pulmonary aspergillosis (Example 19), survival; conditions: for Mean Survival / Median Survival: Day 1 pre-infection
[8] = system: A. fumigatus AF293; experiment: Murine model of pulmonary aspergillosis (Example 19), terminal lung burden; assay type: in vivo, Aspergillus fumigatus
Protocol: A secondary endpoint for the study was terminal lung tissue burden. Immediately following confirmation of death, carcasses were frozen at −20° C. prior to tissue dissection and processing. The frozen carcasses were thawed at room temperature, the lungs removed and placed into pre-weighed bead-beating tubes containing 2 mL of PBS and subjected to mechanical disruption. Organ homogenates were diluted further in PBS and quantitatively cultured for A. fumigatus onto SABC and incubated at 30° C. for 24-48 hours.
2. Lung tissue burden data were analysed using the non-parametric Kruskal-Wallis test and if this was statistically significant all pairwise comparisons were analyzed (Conover-Inman).

[9] = system: A. fumigatus AF293; experiment: Pulmonary aspergillosis, prophylaxis, neutropenic ICR mice (Examples 17, 18), survival; assay type: in vivo, Aspergillus fumigatus
Protocol: Intranasal infection with A. fumigatus AF293 (10^5 CFU/mouse) on Day 0. Prophylaxis CD101 as a single dose (IP; 5, 10, 20 mg/kg) or posaconazole (PO; 2 and 10 mg/kg) 1 day prior to infection. Survival monitored for 10 days.
Intranasal challenge with A. fumigatus AF293 (10^5 CFU/mouse) was initiated on Day 0 and prophylaxis with CD101 as a single dose (IP; 5, 10, 20 mg/kg) or posaconazole (PO; 2 and 10 mg/kg) was started 1 day prior to infection. Survival was monitored for 10 days.

[10] = Vehicle vs. Posaconazole 10 mg/kg
[11] = Posaconazole 10 mg/kg PO Day −1

**Q.** Which “percent survival at the end of the study” value [1] does the source give for `C[C@@H]1[C@H](O)[C@@H](C)/C=C/C=C/C=C/C=C/C=C/C=C/C=C/[C@H](O[C@@H]2O[C@H](C)[C@@H](O)[C@H](N)[C@@H]2O)C[C@@H]2O[C@](O)(C[C@@H](O)C[C@@H](O)[C@H](O)CC[C@@H](O)C[C@@H](O)CC(=O)O[C@H]1C)C[C@H](O)[C@H]2C(=O)O` [AmB, amphotericin B, reference compound] here?
**A.** 30%

**Q.** What about the survival vs vehicle [2] of the same compound?
**A.** significantly longer survival than vehicle

**Q.** What about the 14-day survival [3] of the same compound?
**A.** significant increase in the 14-day survival

**Q.** For `CCCCCOc1ccc(-c2ccc(-c3ccc(C(=O)N[C@H]4C[C@@H](O)[C@@H](O)NC(=O)[C@@H]5[C@@H](O)[C@@H](C)CN5C(=O)[C@H]([C@@H](C)O)NC(=O)[C@H]([C@H](O)[C@@H](O)c5ccc(O)cc5)NC(=O)[C@@H]5C[C@@H](O)CN5C(=O)[C@H]([C@@H](C)O)NC4=O)cc3)cc2)cc1` [Anidulafungin, anidulafungin, reference compound] ({pTerphenylCO(4''-OnC5H11)}-[Orn(4R-OH,5R-OH)]T[Hyp][hTyr(3S-OH,4S-OH)]T[Pro(3S-OH,4S-Me)]; lactam 1-C), which MIC ([4]; C. albicans 98-17) is on record?
**A.** 0.03 µg/mL (≈ 0.0263 µM)

**Q.** What about the MIC ([4]; C. albicans 98-210) of the same compound?
**A.** 0.015 µg/mL (≈ 0.0132 µM)

**Q.** And the MIC ([4]; C. albicans 580)?
**A.** 0.015 µg/mL (≈ 0.0132 µM)

**Q.** What about the MIC ([4]; C. albicans K-1, 50% growth diminution) of the same compound?
**A.** 0.015 µg/mL (≈ 0.0132 µM)

**Q.** And the MIC ([5]; C. glabrata 5592)?
**A.** 0.06 µg/mL (≈ 0.0526 µM)

**Q.** What about the MIC ([5]; C. glabrata 10956) of the same compound?
**A.** 1 µg/mL (≈ 0.877 µM)

**Q.** What about the MIC ([5]; C. glabrata 35315) of the same compound?
**A.** 0.25 µg/mL (≈ 0.219 µM)

**Q.** What about the MIC ([6]; C. parapsilosis 20423.072) of the same compound?
**A.** 1 µg/mL (≈ 0.877 µM)

**Q.** And the MIC ([6]; C. parapsilosis 20477.048)?
**A.** 2 µg/mL (≈ 1.75 µM)

**Q.** What about the MIC ([6]; C. parapsilosis 20519.069) of the same compound?
**A.** 4 µg/mL (≈ 3.51 µM)

**Q.** For `CC[C@@H]([C@H](C)O)n1ncn(-c2ccc(N3CCN(c4ccc(OC[C@@H]5CO[C@@](Cn6cncn6)(c6ccc(F)cc6F)C5)cc4)CC3)cc2)c1=O` [Posaconazole, posaconazole], which “survival time post infection, range” value ([7]; Posaconazole 2 mg/kg PO once) is on record?
**A.** 69 to 114 h

**Q.** What about the “Mean Survival” value ([7]; Posaconazole 2 mg/kg PO once) of the same compound?
**A.** 77.5 h

**Q.** And the “Median Survival” value ([7]; Posaconazole 2 mg/kg PO once)?
**A.** 69.0 h

**Q.** What about the “survival time post infection, range” value ([7]; Posaconazole 10 mg/kg PO once) of the same compound?
**A.** 69 to 240 h

**Q.** And the “Mean Survival” value ([7]; Posaconazole 10 mg/kg PO once)?
**A.** 212 h and 211.5 h

**Q.** And the “Median Survival” value ([7]; Posaconazole 10 mg/kg PO once)?
**A.** cannot estimate

**Q.** What about the “mice surviving to the end of the study” value ([7]; Posaconazole 10 mg/kg PO, 6/treatment group, 10 days) of the same compound?
**A.** 5

**Q.** And the “Wilcoxon (Peto-Prentice) test, survival” value ([7]; Vehicle vs. Posaconazole 2 mg/kg)?
**A.** P = 0.0391

**Q.** And the “Log-Rank test, survival” value [7, 10]?
**A.** P = 0.0182

**Q.** And the “Wilcoxon (Peto-Prentice) test, survival” value [7, 10]?
**A.** P = 0.0441

**Q.** And the “survival compared to the vehicle mice” value ([7]; posaconazole 2 mg/kg once one day pre-infection)?
**A.** did not show any improvement in survival

**Q.** What about the “mice surviving to the end of the study” value ([7]; posaconazole 10 mg/kg once 1 day pre-infection) of the same compound?
**A.** > 80%

**Q.** And the “Group Geometric mean (lung burden)” value ([8]; Posaconazole 2 mg/kg PO Day −1)?
**A.** 1.14 × 10^4 CFU/g

**Q.** And the “Log10 Group Geometric mean (lung burden)” value ([8]; Posaconazole 2 mg/kg PO Day −1)?
**A.** 4.06 CFU/g

**Q.** What about the “Log10 reduction from vehicle control” value ([8]; Posaconazole 2 mg/kg PO Day −1) of the same compound?
**A.** 0.11 CFU/g

**Q.** And the “Group Geometric mean (lung burden)” value [8, 11]?
**A.** 2.75 × 10^3 CFU/g

**Q.** And the “Log10 Group Geometric mean (lung burden)” value [8, 11]?
**A.** 3.44 CFU/g

**Q.** What about the “Log10 reduction from vehicle control” value [8, 11] of the same compound?
**A.** 0.73 CFU/g

**Q.** And the survival ([9]; posaconazole 2 mg/kg PO 1 day prior to infection)?
**A.** no survivors

**Q.** And the “survival rate relative to control” value ([9]; posaconazole 10 mg/kg PO 1 day prior to infection)?
**A.** statistically-significant increase in survival rate relative to control
